# Reference: patent US20120029187A1, “HALOALKYLSULFONANILIDE DERIVATIVE” (Nissan Chemical Industries, Ltd., priority 2009, published 2012)
# Columns and labels:
# Format in all cases: in vivo
# barnyardgrass [1] = assay: Test Example 1: herbicidal effects in preemergence treatment under submerged conditions; settings: dose 2.52 g/a
# Text: (§1) Test on the Herbicidal Effects in Preemergence Treatment on Weeds Under Submerged Conditions
# (§2) Alluvial soil was put in 1/30000-are styrol cups and admixed with water so that it was submerged at a depth of 4 cm. In each cup, seeds of barnyardgrass, bulrush and ducksalad were sown together, and rice seedlings at the 2.5-leaf stage were transplanted. On the same day as the seeding, emulsifiable concentrates containing compounds of the present invention formulated in accordance with Formulation Example 2 were applied to the water surfaces at predetermined doses after diluted with water. The cups were placed in a greenhouse at 25 to 30° C. to grow the plants. Three weeks after the application, the herbicidal effects against various plants were determined on the following evaluation scale.
# (§3) 5 mortality of 90% or above (nearly complete death)
# (§4) 4 mortality of at least 70% and less than 90%
# (§5) 3 mortality of at least 40% and less than 70%
# (§6) 2 mortality of at least 20% and less than 40%
# (§7) 1 mortality of at least 5% and less than 20%
# (§8) 0 mortality of less than 5% (almost ineffective)
# (§9) A: barnyardgrass, B: bulrush, C: ducksalad, D: large crabgrass, E: giant foxtail, F: wild oat, G: water foxtail, H: Italian ryegrass, I: velvetleaf, J: common ragweed, K: redroot pigweed, L: common lambsquater, M: posumbu knotweed, N: common chickweed, O: beadstraw, a: transplanted rice, b: corn, c: soybean, d: direct-seeded rice, e: wheat, f: sugar beet.
# (§10) The doses (g/a) represents the amounts in g per 1 are (a) applied after adjustment of concentration adjustment.
# bulrush [2] = assay: as above; settings: dose 2.52 g/a
# Text: as §1, §2, §3, §4, §5, §6, §7, §8, §9, §10
# ducksalad [3] = assay: as above; settings: dose 2.52 g/a
# Text: as §1, §2, §3, §4, §5, §6, §7, §8, §9, §10
# transplanted rice = assay: Test Example 1: preemergence treatment under submerged conditions, effect on crop; settings: dose 2.52 g/a
# Text: as §1, §2, §3, §4, §5, §6, §7, §8, §9, §10
# barnyardgrass [4] = assay: Test Example 2: herbicidal effects during the vegetation period under submerged conditions; settings: treatment during the vegetation period under submerged conditions; dose 2.52 g/a
# Method: (§11) Test on the Herbicidal Effects on Weeds During the Vegetation Period Under Submerged Conditions
# (§12) Alluvial soil was put in 1/30000-are styrol cups and admixed with water so that it was submerged at a depth of 4 cm. In each cup, seeds of barnyardgrass, bulrush and ducksalad were sown together, and the cups were placed in a greenhouse at 25 to 30° C. to grow the plants. When the barnyardgrass, bulrush and ducksalad reached the 1- or 2-leaf stage, emulsifiable concentrates containing compounds of the present invention formulated in accordance with Formulation Example 2 were applied to the water surfaces at predetermined doses after diluted with water. Three weeks after the application, the herbicidal effects against various plants were determined on the same evaluation scale as in Test Example 1.
# as §9, §10
# bulrush [5] = assay: as above; settings: treatment during the vegetation period under submerged conditions; dose 2.52 g/a
# Method: as §11, §12, §9, §10
# ducksalad [6] = assay: as above; settings: treatment during the vegetation period under submerged conditions; dose 2.52 g/a
# Method: as §11, §12, §9, §10
# Italian ryegrass [7] = assay: Test Example 3: herbicidal effects in soil treatment; settings: dose 3.2 g/a
# Text: (§13) Test on the Herbicidal Effects in Soil Treatment
# (§14) Sterilized diluvial soil was put in plastic boxes with a length of 21 cm, a width of 13 cm and a depth of 7 cm, and seeds of barnyardgrass, large crabgrass, giant foxtail, wild oat, blackgrass, velvetleaf, common ragweed, redroot pigweed, common lambsquater, posumbu knotweed, common chickweed corn, soybean, rice, wheat and sugar beet were sown in spots and covered with an about 1.5 cm-thick soil layer. Emulsifiable concentrates containing compounds of the present invention formulated in accordance with Formulation Example 2 were uniformly applied to the soil surfaces at predetermined doses through a small sprayer after dilute with water. Three weeks after the application, the herbicidal effects against various plants were determined on the same evaluation scale as in Test Example 1.
# as §9, §10
# barnyardgrass [8] = assay: as above; settings: dose 3.2 g/a
# Text: as §13, §14, §9, §10
# common chickweed [9] = assay: as above; settings: dose 3.2 g/a
# Text: as §13, §14, §9, §10
# common lambsquater [10] = assay: as above; settings: dose 3.2 g/a
# Text: as §13, §14, §9, §10
# common ragweed [11] = assay: as above; settings: dose 3.2 g/a
# Text: as §13, §14, §9, §10
# giant foxtail [12] = assay: as above; settings: dose 3.2 g/a
# Text: as §13, §14, §9, §10
# large crabgrass [13] = assay: as above; settings: dose 3.2 g/a
# Text: as §13, §14, §9, §10
# redroot pigweed [14] = assay: as above; settings: dose 3.2 g/a
# Text: as §13, §14, §9, §10
# velvetleaf [15] = assay: as above; settings: dose 3.2 g/a
# Text: as §13, §14, §9, §10
# water foxtail [16] = assay: as above; settings: dose 3.2 g/a
# Text: as §13, §14, §9, §10
# Italian ryegrass [17] = assay: Test Example 4: herbicidal effect in foliage treatment; settings: dose 3.2 g/a, three weeks after application
# Text: (§15) Test on the Herbicidal Effect in Foliage Treatment
# as §14, with “chickweed,” for “chickweed”, “The boxes were placed in a greenhouse at 25 to 30° C. to grow the plants. After 14 days, emulsifiable” for “Emulsifiable”, “foliage” for “soil surfaces”, “diluted” for “dilute”
# as §9, §10
# barnyardgrass [18] = assay: as above; settings: dose 3.2 g/a, three weeks after application
# Text: as §15
# as §14, with “chickweed,” for “chickweed”, “The boxes were placed in a greenhouse at 25 to 30° C. to grow the plants. After 14 days, emulsifiable” for “Emulsifiable”, “foliage” for “soil surfaces”, “diluted” for “dilute”
# as §9, §10
# beadstraw = assay: as above; settings: dose 3.2 g/a, three weeks after application
# Text: as §15
# as §14, with “chickweed,” for “chickweed”, “The boxes were placed in a greenhouse at 25 to 30° C. to grow the plants. After 14 days, emulsifiable” for “Emulsifiable”, “foliage” for “soil surfaces”, “diluted” for “dilute”
# as §9, §10
# common chickweed [19] = assay: as above; settings: dose 3.2 g/a, three weeks after application
# Text: as §15
# as §14, with “chickweed,” for “chickweed”, “The boxes were placed in a greenhouse at 25 to 30° C. to grow the plants. After 14 days, emulsifiable” for “Emulsifiable”, “foliage” for “soil surfaces”, “diluted” for “dilute”
# as §9, §10
# common lambsquater [20] = assay: as above; settings: dose 3.2 g/a, three weeks after application
# Text: as §15
# as §14, with “chickweed,” for “chickweed”, “The boxes were placed in a greenhouse at 25 to 30° C. to grow the plants. After 14 days, emulsifiable” for “Emulsifiable”, “foliage” for “soil surfaces”, “diluted” for “dilute”
# as §9, §10
# common ragweed [21] = assay: as above; settings: dose 3.2 g/a, three weeks after application
# Text: as §15
# as §14, with “chickweed,” for “chickweed”, “The boxes were placed in a greenhouse at 25 to 30° C. to grow the plants. After 14 days, emulsifiable” for “Emulsifiable”, “foliage” for “soil surfaces”, “diluted” for “dilute”
# as §9, §10
# giant foxtail [22] = assay: as above; settings: dose 3.2 g/a, three weeks after application
# Text: as §15
# as §14, with “chickweed,” for “chickweed”, “The boxes were placed in a greenhouse at 25 to 30° C. to grow the plants. After 14 days, emulsifiable” for “Emulsifiable”, “foliage” for “soil surfaces”, “diluted” for “dilute”
# as §9, §10
# large crabgrass [23] = assay: as above; settings: dose 3.2 g/a, three weeks after application
# Text: as §15
# as §14, with “chickweed,” for “chickweed”, “The boxes were placed in a greenhouse at 25 to 30° C. to grow the plants. After 14 days, emulsifiable” for “Emulsifiable”, “foliage” for “soil surfaces”, “diluted” for “dilute”
# as §9, §10
# posumbu knotweed = assay: as above; settings: dose 3.2 g/a, three weeks after application
# Text: as §15
# as §14, with “chickweed,” for “chickweed”, “The boxes were placed in a greenhouse at 25 to 30° C. to grow the plants. After 14 days, emulsifiable” for “Emulsifiable”, “foliage” for “soil surfaces”, “diluted” for “dilute”
# as §9, §10
# redroot pigweed [24] = assay: as above; settings: dose 3.2 g/a, three weeks after application
# Text: as §15
# as §14, with “chickweed,” for “chickweed”, “The boxes were placed in a greenhouse at 25 to 30° C. to grow the plants. After 14 days, emulsifiable” for “Emulsifiable”, “foliage” for “soil surfaces”, “diluted” for “dilute”
# as §9, §10
# velvetleaf [25] = assay: as above; settings: dose 3.2 g/a, three weeks after application
# Text: as §15
# as §14, with “chickweed,” for “chickweed”, “The boxes were placed in a greenhouse at 25 to 30° C. to grow the plants. After 14 days, emulsifiable” for “Emulsifiable”, “foliage” for “soil surfaces”, “diluted” for “dilute”
# as §9, §10
# water foxtail [26] = assay: as above; settings: dose 3.2 g/a, three weeks after application
# Text: as §15
# as §14, with “chickweed,” for “chickweed”, “The boxes were placed in a greenhouse at 25 to 30° C. to grow the plants. After 14 days, emulsifiable” for “Emulsifiable”, “foliage” for “soil surfaces”, “diluted” for “dilute”
# as §9, §10
compound,measurement,setting,value
CCOC(=O)N(c1ccccc1CN1COC2(CCCC2)CC1=O)S(=O)(=O)C(F)(F)F [II-66],"A: barnyardgrass, herbicidal effect (evaluation scale 0-5)",barnyardgrass [1],5 (mortality of 90% or above (nearly complete death))
same,"B: bulrush, herbicidal effect (evaluation scale 0-5)",bulrush [2],5 (mortality of 90% or above (nearly complete death))
same,"C: ducksalad, herbicidal effect (evaluation scale 0-5)",ducksalad [3],5 (mortality of 90% or above (nearly complete death))
same,"a: transplanted rice, effect on crop (evaluation scale 0-5)",transplanted rice,0 (mortality of less than 5% (almost ineffective))
same,"A: barnyardgrass, herbicidal effect (evaluation scale 0-5)",barnyardgrass [4],5 (mortality of 90% or above (nearly complete death))
same,"B: bulrush, herbicidal effect (evaluation scale 0-5)",bulrush [5],5 (mortality of 90% or above (nearly complete death))
same,"C: ducksalad, herbicidal effect (evaluation scale 0-5)",ducksalad [6],5 (mortality of 90% or above (nearly complete death))
same,"H: Italian ryegrass, herbicidal effect (evaluation scale 0-5)",Italian ryegrass [7],5 (mortality of 90% or above (nearly complete death))
same,"A: barnyardgrass, herbicidal effect (evaluation scale 0-5)",barnyardgrass [8],5 (mortality of 90% or above (nearly complete death))
same,"N: common chickweed, herbicidal effect (evaluation scale 0-5)",common chickweed [9],5 (mortality of 90% or above (nearly complete death))
same,"L: common lambsquater, herbicidal effect (evaluation scale 0-5)",common lambsquater [10],0 (mortality of less than 5% (almost ineffective))
same,"J: common ragweed, herbicidal effect (evaluation scale 0-5)",common ragweed [11],3 (mortality of at least 40% and less than 70%)
same,"E: giant foxtail, herbicidal effect (evaluation scale 0-5)",giant foxtail [12],5 (mortality of 90% or above (nearly complete death))
same,"D: large crabgrass, herbicidal effect (evaluation scale 0-5)",large crabgrass [13],5 (mortality of 90% or above (nearly complete death))
same,"K: redroot pigweed, herbicidal effect (evaluation scale 0-5)",redroot pigweed [14],2 (mortality of at least 20% and less than 40%)
same,"I: velvetleaf, herbicidal effect (evaluation scale 0-5)",velvetleaf [15],4 (mortality of at least 70% and less than 90%)
same,"G: water foxtail, herbicidal effect (evaluation scale 0-5)",water foxtail [16],5 (mortality of 90% or above (nearly complete death))
same,"H: Italian ryegrass, herbicidal effect",Italian ryegrass [17],3 (mortality of at least 40% and less than 70%)
same,"A: barnyardgrass, herbicidal effect",barnyardgrass [18],5 (mortality of 90% or above (nearly complete death))
same,"O: beadstraw, herbicidal effect",beadstraw,0 (mortality of less than 5% (almost ineffective))
same,"N: common chickweed, herbicidal effect",common chickweed [19],4 (mortality of at least 70% and less than 90%)
same,"L: common lambsquater, herbicidal effect",common lambsquater [20],3 (mortality of at least 40% and less than 70%)
same,"J: common ragweed, herbicidal effect",common ragweed [21],3 (mortality of at least 40% and less than 70%)
same,"E: giant foxtail, herbicidal effect",giant foxtail [22],4 (mortality of at least 70% and less than 90%)
same,"D: large crabgrass, herbicidal effect",large crabgrass [23],3 (mortality of at least 40% and less than 70%)
same,"M: posumbu knotweed, herbicidal effect",posumbu knotweed,4 (mortality of at least 70% and less than 90%)
same,"K: redroot pigweed, herbicidal effect",redroot pigweed [24],0 (mortality of less than 5% (almost ineffective))
same,"I: velvetleaf, herbicidal effect",velvetleaf [25],3 (mortality of at least 40% and less than 70%)
same,"G: water foxtail, herbicidal effect",water foxtail [26],5 (mortality of 90% or above (nearly complete death))
